From BindingDB's records for doi:10.1016/s0960-894x(04)00332-4 (Aventis Pharma, 2004)

What was measured:
[1] = biological target: Beta-lactamase P99 (Enterobacter cloacae) (UniProt P05364); experiment: Inhibition of hydrolysis of nitrocefin after 5 min pre-incubation with P99 beta-lactamases (class C)
[2] = biological target: Beta-lactamase P99 (Enterobacter cloacae) (UniProt P05364); experiment: Time dependent inhibition of hydrolysis of nitrocefin after 5 min pre-incubation with P99 beta-lactamases (class C)

Beta-lactamase P99 (Enterobacter cloacae), sequence (P05364 whole entry, looked up): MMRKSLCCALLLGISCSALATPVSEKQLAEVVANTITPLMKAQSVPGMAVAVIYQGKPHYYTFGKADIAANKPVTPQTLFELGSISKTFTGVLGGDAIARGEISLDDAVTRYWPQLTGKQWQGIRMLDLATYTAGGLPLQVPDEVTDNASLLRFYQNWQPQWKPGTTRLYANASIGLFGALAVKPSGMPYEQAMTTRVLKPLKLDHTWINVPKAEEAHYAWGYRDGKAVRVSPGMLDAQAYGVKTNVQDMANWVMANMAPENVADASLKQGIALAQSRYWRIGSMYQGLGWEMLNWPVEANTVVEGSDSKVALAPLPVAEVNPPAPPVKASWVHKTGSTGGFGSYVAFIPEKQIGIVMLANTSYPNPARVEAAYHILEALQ

| Structure (SMILES) | IC50 [1] | IC50 [2] |
| --- | --- | --- |
| COC1=C(C(=O)OCc2ccc([N+](=O)[O-])cc2)N2C[C@@H](CC2=O)C1 [(1S,5R)-3-Methoxy-7-oxo-1-aza-bicyclo[3.2.1]oct-2-ene-2-carboxylic acid 4-nitro-benzyl ester] | 160 µM |  |
| CC[C@@H]1C(=O)N2C[C@@H]1CC(OC)=C2C(=O)OCc1ccc([N+](=O)[O-])cc1 [(1S,5R,6S)-6-Ethyl-3-methoxy-7-oxo-1-aza-bicyclo[3.2.1]oct-2-ene-2-carboxylic acid 4-nitro-benzyl ester] | 300 µM |  |
| CC[C@@H]1C(=O)N2C[C@@H]1CC(OC)=C2C(=O)O [(1S,5R,6S)-6-Ethyl-3-methoxy-7-oxo-1-aza-bicyclo[3.2.1]oct-2-ene-2-carboxylic acid] | 100 µM |  |
| CC[C@@H]1C(=O)N2C[C@@H]1C=C(OC)C2C(=O)OCc1ccc([N+](=O)[O-])cc1 (stereo partly drawn) [(1S,5R,6S)-6-Ethyl-3-methoxy-7-oxo-1-aza-bicyclo[3.2.1]oct-3-ene-2-carboxylic acid 4-nitro-benzyl ester] |  | 210 µM |
| COC1=C[C@@H]2CC(=O)N(C2)C1C(=O)OCc1ccc([N+](=O)[O-])cc1 (stereo partly drawn) [(1S,5S)-3-Methoxy-7-oxo-1-aza-bicyclo[3.2.1]oct-3-ene-2-carboxylic acid 4-nitro-benzyl ester] | 25 µM |  |
| COC1=C[C@@H]2CC(=O)N(C2)C1C(=O)O (stereo partly drawn) [(1S,5S)-3-Methoxy-7-oxo-1-aza-bicyclo[3.2.1]oct-3-ene-2-carboxylic acid] | 140 µM |  |
